The results in this text go back to publication PMC8163394 (2020).

Molecules are shown by their SMILES.

The test system of assay [1] is poly(dA-dT) (DNA, polymer) AT. The assay can be described thus: emission titration (enhancement), TRIR. The conditions noted are these: 10 mM sodium phosphate, [Ru] 8 μM.
Assay [2] deals with d(CGCGAATTCGCG)2 (DNA, duplex) CGCGAATTCGCG
The experiment in a line: emission titration (quenching), TRIR. The conditions noted are these: 50 mM potassium phosphate; pH 7; [Ru] 10 μM.

Assay [3] relates to poly(dG-dC) (DNA, polymer) GC. The experiment in a line: emission titration, McGhee-von Hippel fit. The following applies: 10 mM phosphate buffer (sodium in Fig. 2, potassium in Fig. S1); pH 7, air-saturated; [Ru] 20 μM; per base.
In assay [4] the test system is d(GCGCGCGCGC)2 (DNA, duplex) GCGCGCGCGC
The assay can be described thus: TRIR and transient absorption. The following applies: 50 mM potassium phosphate; pH 7, D2O.

The subject of assay [5] is d(CGCAAATTTGCG)2 (DNA, duplex) CGCAAATTTGCG
The experiment in a line: emission titration (complex, decrease then increase), TRIR. The conditions noted are these: 50 mM potassium phosphate; pH 7; [Ru] 10 μM.

For the compound `[Ru+2].c1ccc2nc3c4cccnc4c4ncccc4c3nc2c1.c1cnc2c(ccc3nccnc32)n1.c1cnc2c(ccc3nccnc32)n1` [Δ-1], the binding result in assay [1] (reaches saturation), in assay [2], in assay [4] and in assay [5] was “yes” each time. Moreover, the Kb in assay [3] is recorded as 3.6 ± 0.2 × 10^6 M^-1.
With `[Ru+2].c1ccc2nc3c4cccnc4c4ncccc4c3nc2c1.c1cnc2c(ccc3nccnc32)n1.c1cnc2c(ccc3nccnc32)n1` [Λ-1], the binding result in assay [1] (saturation not reached), in assay [2], in assay [4] and in assay [5] was “yes” each time. Also, the Kb in assay [3] was 1.2 ± 0.1 × 10^6 M^-1.
